The values below come from patent US10450613B2, “EGFR/NEDD9/TGF-β interactome and methods of use thereof for the identification of agents having efficacy in the treatment of hyperproliferative disorders” (Fox Chase Cancer Center, priority 2007, dated 2019).

For experiment [1], the system named is A431 cells. Briefly: Drug synergy testing (Chou-Talalay CI), viability. It counts as cell-based, human. The note with it: 72 hours, CI <1 synergy, <0.5 strong synergy. Here is the method:
(§1) The coefficient of interaction (CI) between pharmacological inhibitors was established by the Chou-Talalay method (Chou et al., (1984) Adv Enzyme Regul 22:27). The software package CalcuSyn (BioSoft, UK) was used to automate calculations. Briefly, for each drug tested, an IC50 curve was established in each cell line, and used to select combination doses of drugs for subsequent synergy tests. 3500 cells were plated per well in 96-well plates. After 24 hours, cells were treated with serial dilutions of individual inhibitors, or combinations of two inhibitors maintained at a constant molar ratio. After 72 hours incubation, cell viability was measured using either CellTiter Blue (Promega, USA) or a WST1 assay (Roche Applied Science, Indianapolis, Ind.). The CI values for each dose and corresponding cytotoxicity were expressed as the fraction affected (Fa) and were calculated using CalcuSyn computer software and presented as Fa-CI plots. CI values <1 indicate synergy, and <0.5 strong synergy, between the two agents in producing cytotoxic effect.

For experiment [2], the system named is HCT116 cells. Briefly: Drug synergy testing (Chou-Talalay CI), viability. It counts as cell-based, human. Here is the method:
as §1

A further experiment concerns cancer cells. Briefly: Drug synergy testing (Chou-Talalay CI), cell line not stated (FIG. 17B). It counts as cell-based. Here is the method: as §1
The subject of experiment [3] is HCT116 cells. Briefly: Apoptosis after drug combination treatment. The settings on record: HCT116, 72 hours (FIG. 17C). It counts as cell-based, human.
Experiment [4] has as its system EGFR, ERK1/2 and AKT phosphorylation. Briefly: Western analysis of EGFR pathway after inhibitor treatment and EGF stimulation. It counts as cell-based, human.
In experiment [5] the test system is A431 cells. Nature of the experiment: Phosphoproteomic analysis, Proteome Profiler array of 46 signaling proteins. It counts as cell-based, human. As for the experimental part:
For phosphoproteomic analysis, we used the Proteome Profiler™ array (R&D Systems, Minneapolis, Minn., USA) according to the manufacturer's protocol. In brief, A431 cells were grown for 24 hours in DMEM supplemented with L-glutamine and 1% FBS to 70% confluency. Cells then were either serum starved overnight or remained in the same media. Serum starved and cells incubated in 1% serum were either left untreated or incubated with IC30 concentrations of inhibitors for 3 hours. […] Serum-starved cells were subsequently stimulated with recombinant EGF (Sigma-Aldrich, USA) at 15 ng/mL for 15 minutes before lysis. For a subset of phospho-proteins, phosphorylation status was confirmed by Western blot. Quantification was done using ImageJ software.

[6] abbreviates: PHA-680632 alone, transient EGF stimulation.
Setting [7] is: A431, serum starved, EGF-stimulated (FIG. 19A).

SMILES strings stand for the structures.

On to `CCc1cccc(CC)c1NC(=O)N1Cc2n[nH]c(NC(=O)c3ccc(N4CCN(C)CC4)cc3)c2C1` [PHA-680632], for which the “Synergy with erlotinib in reducing viability (Chou-Talalay CI)” value in the experiment on A431 cells [1] is recorded as “synergized strongly”. Moreover, in the experiment with HCT116 cells [2] (HCT116 (FIG. 17D)), the “Cell viability, combination with erlotinib” value is on record as “Dose-dependent inhibition”. In addition, the “Synergy with erlotinib in reducing viability (Chou-Talalay CI)” value in the experiment on HCT116 cells [2] (HCT116, 72 hours, CI <1 synergy, <0.5 strong synergy) is “synergized strongly”. The “Synergy with cetuximab (Chou-Talalay CI)” value in the experiment on cancer cells is on record as “synergized”. Besides, the “Frequency of apoptosis, combination with erlotinib” value with HCT116 cells [3] is recorded as “increases apoptosis”. Further, in experiment [4] (3 hrs inhibitors then EGF, vs either agent alone (FIGS. 17H, 18; HCT116)), the “S473-AKT phosphorylation, combination with erlotinib” value is “very significantly reduced”. Besides, in experiment [4] (setting [6]), the “EGFR expression, autophosphorylation, and activation” value was “did not inhibit”; the “ERK1/2 or AKT phosphorylation” value is listed as “little effect”. Moreover, the “Phosphorylation of 46 signaling proteins, combination of erlotinib and PHA-680632” value with A431 cells [5] (A431, 1% serum steady state, erlotinib 0.5 μM plus PHA 0.1 μM (FIG. 19B)) is “significant reduction in activity of STAT3, and a group of Src kinases”. Further, in the experiment with A431 cells [5] (setting [7]), the “Phosphorylation of 46 signaling proteins, combination of erlotinib and PHA-680632” value was “specific inhibition of a subset of proteins”; the “Phosphorylation of 46 signaling proteins, single agent” value is reported as “little effect”.
